The values that follow come from patent US20190085024A1, “Alpha-Ketoamide Inhibitors Of Cysteine Proteases” (Phelix Therapeutics, priority 2017, published 2019).

*1 amine or outer side, *2 acyl side, *3 side chain or, on linkers, in order; H or OH if unused. Where a SMILES comes first, the peptide text is derived from it. [ ]: non-standard residue; d: D form. The star is where a group is joined. 2Nal = N[CH](Cc1ccc2ccccc2c1)C(=O)O; X2 = C=CCOCC(N[*:1])C(=O)C(=O)[*:2]; PhAc = O=C(Cc1ccccc1)*; Allyl = C=CC* A value given as a limit tells only on which side of the number the result lay.

The target of one assay is T1, Cat K (Homo sapiens, UniProt P43235).
T1 sequence (P43235 115-329): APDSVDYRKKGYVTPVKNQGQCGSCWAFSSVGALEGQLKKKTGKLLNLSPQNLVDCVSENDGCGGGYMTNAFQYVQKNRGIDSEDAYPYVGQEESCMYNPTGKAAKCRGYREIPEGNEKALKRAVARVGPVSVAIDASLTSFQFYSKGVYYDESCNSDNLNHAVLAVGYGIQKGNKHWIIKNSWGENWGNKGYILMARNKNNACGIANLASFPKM
Kind of assay: Cat K inhibition. The assay is classed as biochemical.

The target of a further assay is Cathepsin B (Homo sapiens, UniProt P07858). Kind of assay: Cathepsin B enzyme assay. Conditions: Cat B (μM), Ki by Morrison equation; pH 6.0, substrate Z-Phe-Arg-Amc.
A further assay has as its target Calpain. Kind of assay: Calpain enzyme assay. The assay is classed as biochemical. Conditions: Ki by Morrison equation; pH 7.5, 5 mM CaCl2.
The target of a further assay is Cathepsin L (Homo sapiens, UniProt P07711). Kind of assay: Cathepsin L enzyme assay. The assay is classed as biochemical. The conditions noted are these: Ki by Morrison equation; pH 5.5, substrate Z-Phe-Arg-Amc; read-out: Cat L. An excerpt: Two wells contained DMSO only for controls.
Velocity was converted to μM/sec.

The target of a further assay is Cat S (Homo sapiens, UniProt P25774). Kind of assay: Cat S inhibition. The format is biochemical.
Assay [1] relates to EBOV WT (Ebola Wild Type). In words: microbe, parasite or virus in culture. The assay is classed as cell-based. Conditions: Zaire ebolavirus, read-out: EBOV WT (μM) (Ebola Wild Type).
For the next assay, the system named is MERS WT. In words: microbe, parasite or virus in culture. The assay is classed as cell-based. The conditions noted are these: Middle East respiratory syndrome-related coronavirus, read-out: MERS WT (μM).

Sequence of Cathepsin L (P07711 114-333, species assumed): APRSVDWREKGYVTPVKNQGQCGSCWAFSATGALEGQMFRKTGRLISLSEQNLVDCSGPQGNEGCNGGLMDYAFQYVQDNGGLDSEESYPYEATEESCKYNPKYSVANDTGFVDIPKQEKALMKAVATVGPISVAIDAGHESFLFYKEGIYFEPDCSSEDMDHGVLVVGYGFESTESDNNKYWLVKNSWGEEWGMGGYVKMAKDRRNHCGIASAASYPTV
Sequence of Cat S (P25774 115-331): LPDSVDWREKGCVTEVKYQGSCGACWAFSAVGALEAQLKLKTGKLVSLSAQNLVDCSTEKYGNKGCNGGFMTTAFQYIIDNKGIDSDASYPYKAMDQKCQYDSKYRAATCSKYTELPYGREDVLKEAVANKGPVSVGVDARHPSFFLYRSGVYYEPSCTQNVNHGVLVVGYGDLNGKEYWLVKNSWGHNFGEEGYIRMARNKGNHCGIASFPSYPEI

As to `CC(NC(=O)C(Cc1ccccc1)NC(=O)Cc1ccccc1)C(=O)C(=O)NC(Cc1ccccc1)C(=O)NC(C)(C)C(=O)NCCN1CCOCC1` (centres unmarked) [PHELIX231, N-(1-((2-methyl-1-((2-morpholinoethyl)amino)-1-oxopropan-2-yl)amino)-1-oxo-3-phenylpropan-2-yl)-2-oxo-3-(3-phenyl-2-(2-phenylacetamido)propanamido)butanamide], the Ki at Cat K came out at 4890 nM; on Cathepsin B, 2.3 µM; at Calpain it was 3790 nM; at Cathepsin L, 13.7 nM; at Cat S, 200 nM.
In the case of `CC(NC(=O)C(Cc1ccccc1)NC(=O)Cc1ccccc1)C(=O)C(=O)NC(CCCNC(=N)N)C(=O)NC(C)(C)C(N)=O` (centres unmarked) [PHELIX234, N-(1-amino-2-methyl-1-oxopropan-2-yl)-5-guanidino-2-(2-oxo-3-(3-phenyl-2-(2-phenylacetamido)propanamido)butanamido)pentanamide], the Ki on Cat K is 1080 nM; on Cathepsin B, > 10 µM; at Calpain, > 10000 nM; at Cathepsin L it was 129 nM; at Cat S, 78.1 nM.
For the molecule `Cc1ccccc1CC(=O)NC(Cc1ccccc1)C(=O)NC(C)C(=O)C(=O)NC(Cc1ccccc1)C(=O)NC(C)(C)C(N)=O` (centres unmarked) [PHELIX226, N-(1-((1-amino-2-methyl-1-oxopropan-2-yl)amino)-1-oxo-3-phenylpropan-2-yl)-2-oxo-3-(3-phenyl-2-(2-(o-tolyl)acetamido)propanamido)butanamide], the Ki was 1770 nM at Cat K, 0.273 µM at Cathepsin B, > 10000 nM at Calpain and 9.54 nM on Cathepsin L. Moreover, the IC50 in assay [1] stood at 5.09 µM; in the assay on MERS WT it was 114 µM.
For `CC(NC(=O)[C@H](Cc1ccccc1)NC(=O)C(c1ccccc1)c1ccccc1)C(=O)C(=O)N[C@@H](Cc1ccccc1)C(=O)NC(C)(C)C(N)=O` (stereo partly drawn) [PHELIX237, N-((S)-1-((1-amino-2-methyl-1-oxopropan-2-yl)amino)-1-oxo-3-phenylpropan-2-yl)-3-((S)-2-(2,2-diphenylacetamido)-3-phenylpropanamido)-2-oxobutanamide], the Ki is 226 nM on Cat K; 0.0211 µM on Cathepsin B; > 10000 nM on Calpain; 3.36 nM at Cathepsin L; 0.8 nM on Cat S.
For `CC(NC(=O)C(Cc1ccccc1)NC(=O)Cc1ccccc1)C(=O)C(=O)NC(Cc1ccccc1)C(=O)NC(C)(C)C(N)=O` (centres unmarked) [PHELIX249, N-(1-((1-amino-2-methyl-1-oxopropan-2-yl)amino)-1-oxo-3-phenylpropan-2-yl)-2-oxo-3-(3-phenyl-2-(2-phenylacetamido)propanamido)butanamide], the Ki on Cat K was 736 nM; at Cathepsin B, 0.349 µM; on Calpain, > 10000 nM; at Cathepsin L, 101 nM; at Cat S, 6.81 nM. In addition, the IC50 in the assay with MERS WT was > 30 µM.
On to `CC(C)CC(NC(=O)OCc1ccccc1)C(=O)NC(C)C(=O)C(=O)NC(Cc1ccncc1)C(N)=O` (centres unmarked) [PHELIX198, benzyl (1-((4-((1-amino-1-oxo-3-(pyridin-4-yl)propan-2-yl)amino)-3,4-dioxobutan-2-yl)amino)-4-methyl-1-oxopentan-2-yl)carbamate], for which the results for the Ki on Cathepsin B, at Calpain and at Cathepsin L were 7.3 µM, 22 nM and 33.9 nM, respectively. Besides, the IC50 is 4.03 µM in assay [1] and > 10 µM in the assay with MERS WT.
In the case of `CC(NC(=O)C(Cc1ccccc1)NC(=O)c1ccccc1F)C(=O)C(=O)NC(Cc1ccccc1)C(=O)NC(C)(C)C(N)=O` (centres unmarked) [PHELIX224, N-(1-((4-((1-((1-amino-2-methyl-1-oxopropan-2-yl)amino)-1-oxo-3-phenylpropan-2-yl)amino)-3,4-dioxobutan-2-yl)amino)-1-oxo-3-phenylpropan-2-yl)-2-fluorobenzamide], the Ki at Cathepsin B is 0.422 µM; on Calpain, > 10000 nM; at Cathepsin L, 45.7 nM; at Cat S it was 33.2 nM. Further, the results for the IC50 (in assay [1]; in the assay with MERS WT) were 11 µM and > 10 µM, respectively.
As for `CCC(C)C(NC(=O)C(Cc1ccccc1)NC(=O)Cc1ccccc1)C(=O)C(=O)NC(Cc1ccccc1)C(=O)NC(C)(C)C(N)=O` (centres unmarked) [PHELIX233, N-(1-((1-amino-2-methyl-1-oxopropan-2-yl)amino)-1-oxo-3-phenylpropan-2-yl)-4-methyl-2-oxo-3-(3-phenyl-2-(2-phenylacetamido)propanamido)hexanamide], the Ki is 354 nM on Cat K; 0.223 µM at Cathepsin B; > 10000 nM on Calpain; 8.09 nM at Cathepsin L; 2.55 nM on Cat S.
`CC(C)CC(NC(=O)OCc1ccccc1)C(=O)NC(C)C(=O)C(=O)N1CCC(C(=O)NC(Cc2ccccc2)C(N)=O)CC1` (centres unmarked) [PHELIX186, benzyl (1-((4-(4-((1-amino-1-oxo-3-phenylpropan-2-yl)carbamoyl)piperidin-1-yl)-3,4-dioxobutan-2-yl)amino)-4-methyl-1-oxopentan-2-yl)carbamate]: the Ki at Cathepsin B worked out at 60 µM; on Calpain, 18100 nM; on Cathepsin L, 4320 nM. Moreover, the IC50 is 57.5 µM in assay [1] and > 10 µM in the assay on MERS WT.
`CC(NC(=O)C(Cc1ccccc1)NC(=O)Cc1ccccc1)C(=O)C(=O)NC(Cc1ccccc1)C(=O)NC(C)(C)C(=O)NCCc1ccccc1` (centres unmarked) [PHELIX230, N-(1-((2-methyl-1-oxo-1-(phenethylamino)propan-2-yl)amino)-1-oxo-3-phenylpropan-2-yl)-2-oxo-3-(3-phenyl-2-(2-phenylacetamido)propanamido)butanamide]: the Ki at Cat K is 310 nM; on Cathepsin B, 0.236 µM; on Calpain, > 10000 nM; at Cathepsin L, 6.78 nM; on Cat S it was 11.5 nM.
On to `CC(C)CC(NC(=O)OCc1ccccc1)C(=O)NC(C)C(=O)C(=O)NCC(=O)NC(Cc1ccccc1)C(=O)NCCc1ccccc1` (centres unmarked) [PHELIX238, benzyl (5-benzyl-12,17-dimethyl-4,7,10,11,14-pentaoxo-1-phenyl-3,6,9,13-tetraazaoctadecan-15-yl)carbamate], for which the Ki was 27.7 nM on Cat K; 0.313 µM on Cathepsin B; 91.1 nM on Calpain; 3.88 nM at Cathepsin L; 20.3 nM on Cat S.
With `CC(C)CC(NC(=O)Cc1ccccc1)C(=O)NC(C)C(=O)C(=O)NC(C)C(=O)NC(C)(C)C(N)=O` (centres unmarked) [PHELIX183, N-(4-((1-((1-amino-2-methyl-1-oxopropan-2-yl)amino)-1-oxopropan-2-yl)amino)-3,4-dioxobutan-2-yl)-4-methyl-2-(2-phenylacetamido)pentanamide], the figures for the Ki on Cathepsin B, at Calpain and at Cathepsin L were 7.74 µM, 153 nM and 195 nM, respectively. In addition, the IC50 is 29.1 µM in assay [1] and 407 µM with MERS WT.
In the same order, the values of `CC(C)CC(NC(=O)OCc1ccccc1)C(=O)NC(C)C(=O)C(=O)NCCC(=O)NC(Cc1cccc(C#N)c1)C(N)=O` (centres unmarked) [PHELIX185, benzyl (1-((4-((3-((1-amino-3-(3-cyanophenyl)-1-oxopropan-2-yl)amino)-3-oxopropyl)amino)-3,4-dioxobutan-2-yl)amino)-4-methyl-1-oxopentan-2-yl)carbamate] are 2.1 µM, 68.4 nM, 102 nM, 13.3 µM and > 10 µM.
The matching figures for `C=CCOCC(NC(=O)C(CC(C)C)NC(=O)C(Cc1ccc(OCC=C)cc1)NC(=O)Cc1ccccc1)C(=O)C(=O)NCC(=O)NC(Cc1ccc2ccccc2c1)C(N)=O` (centres unmarked) [PHELIX202, N-(1-(allyloxy)-4-((2-((1-amino-3-(naphthalen-2-yl)-1-oxopropan-2-yl)amino)-2-oxoethyl)amino)-3,4-dioxobutan-2-yl)-2-(3-(4-(allyloxy)phenyl)-2-(2-phenylacetamido)propanamido)-4-methylpentanamide] (PhAc-Y(Allyl)L[X2]G[2Nal]-NH2; configuration not given here): 0.692 µM, 25.3 nM, 24 nM, > 10 µM and > 10 µM.
The matching figures for `CC(NC(=O)[C@H](Cc1ccccn1)NC(=O)Cc1ccccc1)C(=O)C(=O)N[C@@H](Cc1ccccc1)C(=O)N[C@@H](Cc1ccccc1)C(N)=O` (some centres unmarked) [PHELIX219, N-(1-((1-amino-1-oxo-3-phenylpropan-2-yl)amino)-1-oxo-3-phenylpropan-2-yl)-2-oxo-3-(2-(2-phenylacetamido)-3-(pyridin-2-yl)propanamido)butanamide]: 7.52 µM, > 10000 nM, 2910 nM, > 10 µM and > 10 µM.
On to `CC(NC(=O)C(Cc1ccccc1)NC(=O)Cc1ccccc1)C(=O)C(=O)NC(Cc1cc2ccccc2[nH]1)C(=O)NC(C)(C)C(N)=O` (centres unmarked) [PHELIX232, N-(1-((1-amino-2-methyl-1-oxopropan-2-yl)amino)-3-(1H-indol-2-yl)-1-oxopropan-2-yl)-2-oxo-3-(3-phenyl-2-(2-phenylacetamido)propanamido)butanamide], for which the Ki at Cat K was 1840 nM; at Cathepsin B it was 19.9 µM; on Calpain, > 10000 nM; on Cathepsin L, 213 nM; at Cat S it was 147 nM.
